Reference: US12691115B2, “Methods for treatment of obesity, atherosclerosis, and thrombosis” (Marshall University Research Corporation, priority 2019, dated 2026)
“Also recorded” adds a separate entry of the source. Where a name gives a salt, the structure may show the parent alone.

How the values were obtained:
WT mice [1] = assay: 7.5% FeCl3 induced carotid artery thrombosis model, drug given before injury; format: in vivo, mouse; conditions: for lowest effective dose with significant antithrombotic effect: gavage for one week; for lowest dose in inhibiting mouse thrombosis: in vivo
Procedure: (§1) Murine carotid artery thrombosis model and tail bleeding assay. Detailed ferric chloride (FeCl3) induced carotid artery thrombosis model has been described before. […] The endpoints were set as follows: 1) blood flow has ceased for >30 seconds; or 2) occlusion is not seen after 30 minutes of FeCl3 injury. […] In some experiments, a jugular vein catheter prepared with P-10 tubing was placed for drug administration after 5 minutes of thrombus initiation. Thrombus formation was continually monitored using the endpoints mentioned above. Tail bleeding assay was either conducted on mice immediately after the thrombosis study or on mice that were not used for the in vivo thrombosis study. […] Tail bleeding assay was conducted on these mice immediately after the thrombosis study.

WT mice [2] = conditions: mouse, in vivo; for mice considered to have bleeding side effects: male, 1 week
Procedure: as §1

[3] = test system: WT mice fed a western diet; assay: FeCl3 thrombosis model under hyperlipidemia (western diet); format: in vivo, mouse; conditions: TPI 1 mg/kg for one week, WD 4 weeks
From the text: Examination of the effect of TYMP inhibition on thrombosis under hyperlipidemia. WT mice were fed a western diet (WD, TD.88137) for a total of 4 weeks. […] These mice were then subjected to the thrombosis study using the 7.5% FeCl3 induced thrombosis model.

AKT = assay: ADP-induced AKT phosphorylation in platelets (immunoblot); format: cell-based, mouse; conditions: 50 μM TPI, 2.5 μM ADP, especially the second phase
Procedure: Evaluation of platelet signaling activation. Platelets in PRP were stimulated with 2.5 μM ADP for 0, 1, 3, and 5 minutes, then lysed with radioimmunoprecipitation assay (RIPA) buffer containing proteinase/phosphatase inhibitor cocktail. The lysates were subsequently used for AKT activation immunoblotting assays. ADP-stimulated p-selectin expression was analyzed by flow cytometry.

platelets [4] = assay: Cellix flow chamber-based platelet adhesion and aggregation assay; format: cell-based, mouse
Procedure: Cellix flow chamber-based platelet adhesion and aggregation assay. Cellix flow chambers were coated with collagen 10 μg/mL in PBS. Whole blood was drawn from mouse IVC using 0.109 M sodium citrate as an anticoagulant, stained with Rhodamine 6G, and then used for the flow chamber mediated adhesion and aggregation assay. Some of the whole blood was treated with or without TPI before it was perfused into the chamber.

Apoe^−/− mice = assay: Apoe−/− mice on WD gavage fed with TPI: liver fat accumulation and atherosclerotic lesions (Oil Red O); format: in vivo, mouse; conditions: gavage 60 μg/Kg/day, 4 weeks, vs saline
From the text: As mentioned above, TYMP enhances platelet activation in vitro and promotes thrombosis in vivo, making TYMP a potential target for antithrombotic therapy. […] Age-matched Apoe^−/− mice on WD fed with saline were used as controls.

C57Bl6 wild type mice = assay: Western diet induced body weight gain; format: in vivo, mouse; conditions: gavage 1 mg/kg/day, western diet TD.88137, vs saline, hydrochloride
From the text: To determine if inhibition of TYMP could attenuate or inhibit obesity in vivo, C57Bl6 wild type mice were fed with a western diet (TD.88137, 42% calories from fat), started from 6 to 8 […], to facilitate their weight gain. […] Mice received the same volume of saline feeding as a control. Body weight gain was monitored weekly, and data were presented as mean of the accumulated weight gain from each mice at each week. N=3 in the saline-feeding group, and 2 in the TPI-feeding group.

platelets in PRP = assay: Mouse platelet aggregation assay (PRP); format: cell-based
From the text: Mouse platelet aggregation assay. […] Platelet-rich plasma (PRP) was used for platelet aggregation assay. […] Same volume of vehicle (DMSO or saline)-treated platelets was used as controls.

WT mice [5] = assay: FeCl3 thrombosis model, bolus injection via jugular vein catheter 5 minutes after thrombus initiation; format: in vivo, mouse
Procedure: Murine carotid artery thrombosis model and tail bleeding assay. Detailed ferric chloride (FeCl3) induced carotid artery thrombosis model has been described before. Vessel injury was induced by 7.5% FeCl3 solution to the carotid artery for 1 minute. […] The endpoints were set as follows: 1) blood flow has ceased for >30 seconds; or 2) occlusion is not seen after 30 minutes of FeCl3 injury. In this case, 30 minutes was assigned to that mouse for the statistical analysis. In some experiments, a jugular vein catheter prepared with P-10 tubing was placed for drug administration after 5 minutes of thrombus initiation. Thrombus formation was continually monitored using the endpoints mentioned above. Tail bleeding assay was either conducted on mice immediately after the thrombosis study or on mice that were not used for the in vivo thrombosis study.

[6] = as component of Lonsurf (TAS-102); no systemic bleeding observed; cited from earlier work
TYMP and Lyn = target: T1, TYMP and Lyn (Homo sapiens, UniProt P19971); assay: Association of TYMP and Lyn (pull-down, Cos-7 cells); format: binding; conditions: TPI treatment
T1 construct: overexpressing full length human TYMP and Lyn in Cos-7 cells; expressed in transfected cells; host or cells: COS-7
T1 sequence (P19971 11-482): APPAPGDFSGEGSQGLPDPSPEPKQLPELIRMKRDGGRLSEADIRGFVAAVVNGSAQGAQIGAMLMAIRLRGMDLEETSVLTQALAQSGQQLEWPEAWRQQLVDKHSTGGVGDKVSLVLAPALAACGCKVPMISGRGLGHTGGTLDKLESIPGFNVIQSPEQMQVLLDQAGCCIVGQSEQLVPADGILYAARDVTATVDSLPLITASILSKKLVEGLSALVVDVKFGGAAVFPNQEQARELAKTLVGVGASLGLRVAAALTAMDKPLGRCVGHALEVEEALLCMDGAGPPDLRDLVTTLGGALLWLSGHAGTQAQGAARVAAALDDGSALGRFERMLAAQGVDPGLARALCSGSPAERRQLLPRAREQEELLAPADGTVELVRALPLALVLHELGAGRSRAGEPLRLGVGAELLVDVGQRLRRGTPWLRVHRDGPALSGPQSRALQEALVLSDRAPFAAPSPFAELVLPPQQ
From the text: Generation of fusion proteins to determine that TYMP binds to LYN through the SH3 binding domain. Human SH3 domain nucleotides (hLynSH3, amino acids 63-123) were amplified by PCR and cloned into a mammalian expression vector pEBG (Addgene, plasmid #22227) with an N-terminal glutathione S-transferase (GST) affinity tag (pEBG-GST-hLynSH3). A pCDNA6B/his-hTYMP plasmid vector was previously constructed. pEBG-GST-hLynSH3 and pCDNA6B/his-hTYMP plasmids were co-transfected into COS-7 cells, lysed in a Pierce™ IP Lysis Buffer (ThermoFisher Scientific), and used for GST pull down assay. Eluates were used for Western blot assay to confirm the presence of TYMP.
pEGFP-N1-human Lyn-GFP and pCDNA6B/his-hTYMP plasmids were also co-transfected into the COS-7 cells. TYMP was pulled down using immobilized Ni-NTA on magnetic sepharose beads (GE Healthcare Life Sciences) for His-tagged protein purification. His-hTYMP eluates were used for western blot assay for Lyn.

[7] = cited from earlier work
platelets [8] = conditions: cited from earlier work
[9] = bolus 17 and 1 mg/kg TPI, 5 min after injury

Compound: CC(=O)Oc1ccccc1C(=O)O [aspirin]
- inhibiting thrombosis (WT mice [1]; gavage aspirin 0.5 mg/kg/day for 7 days): no effect
- lowest effective dose with significant antithrombotic effect (WT mice [1]): 1 mg/kg/day
- lowest dose in inhibiting mouse thrombosis (WT mice [1]): 1 mg/kg
- mice considered to have bleeding side effects (WT mice [2]): 50%

Compound: [H]/N=C1\CCCN1Cc1[nH]c(=O)[nH]c(=O)c1Cl [TPI, tipiracil hydrochloride]
- hyperlipidemia-enhanced thrombosis [3]: dramatically reduced
- in vivo thrombosis (WT mice [1]; gavage 60 μg/kg/day for 3 days): significantly inhibited
- occlusive thrombus formation in the carotid arteries (WT mice [1]; intraperitoneal 17 mg/kg once per day for three days): completely inhibited
- thrombosis (WT mice [1]; intravenous injection 1.7 and 0.17 mg/kg, vs saline): significantly inhibited
- effective dose (anti-thrombotic) (WT mice [1]; without significantly affecting hemostasis): ≤ 60 µg/kg/day
- ADP-stimulated AKT phosphorylation (AKT): dramatically reduced
- platelet aggregation to the collagen-coated surface (platelets [4]; 50 μM TPI, WT whole blood, shear 65 dyn/cm^2, 3 minutes): significantly reduced
- platelet adhesion to collagen (platelets [4]; TYMP inhibition, collagen-coated flow chamber): does not affect
- atherosclerotic plaque areas formation in aortic root (Apoe^−/− mice): attenuated
- lipid accumulation in livers (Apoe^−/− mice): attenuated
- WD-induced body weight gain (C57Bl6 wild type mice): reduced; also recorded: decreases
- ADP-induced aggregation of Tymp−/− platelets (platelets in PRP; 50 μM TPI, 2.5 μM ADP, Tymp−/− platelets): had no effect
- ADP-induced WT platelet aggregation (platelets in PRP; 50 μM TPI, 2.5 μM ADP, WT platelets): attenuated
- CRP-induced platelet aggregation (platelets in PRP; 50 μM TPI, 2 minutes pretreatment): completely blocked
- collagen-induced platelet aggregation (platelets in PRP; WT platelets, different concentrations of TPI, collagen 1 μg/ml): dose-dependently inhibited
- CRP-induced platelet shape change (platelets in PRP; dose-dependently at 250, 125 and 62.5 μM, 0.5 μg/ml CRP): inhibited
- occlusive thrombus formation (WT mice [5]; TPI 50 μg/kg intravenous injection): did not inhibit
- blood flow cessation (WT mice [5]; [9]): no blood flow cessation
- thrombosis formation (time) (WT mice [5]; [9]): significantly prolonged
- lowest effective dose on inhibiting the growth of the on-site thrombus (WT mice [5]; bolus 5 min after injury): 0.05 to 0.1 mg/kg
- systemic safety in clinical trials [6]: systemically safe
- association of TYMP and Lyn (TYMP and Lyn): disrupted
- mice considered to have bleeding side effects (WT mice [2]): 28.5%
- frequency of bleeding compared with clopidogrel-treated mice (WT mice [2]): significantly decreased

Compound: Oc1ncnc2c1ncn2[C@@H]1O[C@H](COC(c2ccccc2)(c2ccccc2)c2ccccc2)[C@@H](O)[C@H]1O [KIN59, 5′-O-tritylinosine]
- thrombosis in vivo [7]: dramatically inhibited
- platelet activation in vitro (platelets [8]): dramatically inhibited

Compound: tPA: tissue plasminogen activator (Activase), FDA-approved clot-busting drug
- lysis of established thrombi (WT mice [5]; bolus 1 mg/kg, 5 min after vascular injury): effectively lysed
- lowest effective dose on thrombolysis (WT mice [5]; bolus 5 min after injury): 0.25 to 0.5 mg/kg
- thrombolytic action (WT mice [5]; tPA 0.25 and 0.125 mg/kg): no thrombolytic action

Compound: COC(=O)[C@H](c1ccccc1Cl)N1CCc2sccc2C1 [clopidogrel]
- lowest effective dose with significant antithrombotic effect (WT mice [1]): 2.5 mg/kg/day
- lowest dose in inhibiting mouse thrombosis (WT mice [1]): 2.5 mg/kg
- mice considered to have bleeding side effects (WT mice [2]): 75%
